# According to patent US9937174B2, “Combinations of histone deacetylase inhibitors and bendamustine” (priority 2014, dated 2018):
# Read-outs that look alike come from different tables or passages of the source.
# Experiments:
# lymphoma cell lines = assay: cells; assay type: cell-based
# Jeko-1 = assay: cells; assay type: cell-based; conditions: Homo sapiens
# Procedure: (§1) Ricolinostat was administered to each cell line at various concentrations (0.01, 0.1, 1, 5, and 10 μM), and cell viability was measured at 24, 48, and 72 hours.
# (§2) Bendamustine was administered to each cell line at various concentrations (25, 50, 100, 200, and 300 μM), and cell viability was measured at 24 and 48 hours.
# (§3) The effect of the drugs on each cell line was determined, and the combination index (CI) was measured. A CI<1 means synergy; a CI=1 means an additive effect; and a CI>1 means antagonism.
# WSU-NHL = assay: cells; assay type: cell-based; conditions: Homo sapiens
# Procedure: as §1, §2, §3
# Hut-78 = assay: cells; assay type: cell-based; conditions: Homo sapiens
# Procedure: as §1, §2, §3
# [1] = system: lymphoma cell lines (WSU-NHL, Hut-78, Jeko-1); assay type: cell-based; conditions: flow cytometry, 24-48 h
# Procedure: In FIG. 5A WSU-NHL cells were treated with either ricolinostat, bendamustine, or ricolinostat and bendamustine at the indicated concentrations. After 24 hours, the cells were fixed and stained with propidium iodide, and were analyzed by flow cytometry. […] This effect was enhanced by the combination with bendamustine (FIGS. 5C and 5D).
# HDAC6 = molecular target: T1, HDAC6 (Homo sapiens, UniProt Q9UBN7); assay: Western blot of HDAC6 and acetylated α-tubulin; assay type: cell-based; conditions: 24 h
# T1 construct: endogenous in cells; host or cells: WSU-NHL, Hut-78, Jeko-1 lymphoma cell lines
# T1 sequence (Q9UBN7 1-1215): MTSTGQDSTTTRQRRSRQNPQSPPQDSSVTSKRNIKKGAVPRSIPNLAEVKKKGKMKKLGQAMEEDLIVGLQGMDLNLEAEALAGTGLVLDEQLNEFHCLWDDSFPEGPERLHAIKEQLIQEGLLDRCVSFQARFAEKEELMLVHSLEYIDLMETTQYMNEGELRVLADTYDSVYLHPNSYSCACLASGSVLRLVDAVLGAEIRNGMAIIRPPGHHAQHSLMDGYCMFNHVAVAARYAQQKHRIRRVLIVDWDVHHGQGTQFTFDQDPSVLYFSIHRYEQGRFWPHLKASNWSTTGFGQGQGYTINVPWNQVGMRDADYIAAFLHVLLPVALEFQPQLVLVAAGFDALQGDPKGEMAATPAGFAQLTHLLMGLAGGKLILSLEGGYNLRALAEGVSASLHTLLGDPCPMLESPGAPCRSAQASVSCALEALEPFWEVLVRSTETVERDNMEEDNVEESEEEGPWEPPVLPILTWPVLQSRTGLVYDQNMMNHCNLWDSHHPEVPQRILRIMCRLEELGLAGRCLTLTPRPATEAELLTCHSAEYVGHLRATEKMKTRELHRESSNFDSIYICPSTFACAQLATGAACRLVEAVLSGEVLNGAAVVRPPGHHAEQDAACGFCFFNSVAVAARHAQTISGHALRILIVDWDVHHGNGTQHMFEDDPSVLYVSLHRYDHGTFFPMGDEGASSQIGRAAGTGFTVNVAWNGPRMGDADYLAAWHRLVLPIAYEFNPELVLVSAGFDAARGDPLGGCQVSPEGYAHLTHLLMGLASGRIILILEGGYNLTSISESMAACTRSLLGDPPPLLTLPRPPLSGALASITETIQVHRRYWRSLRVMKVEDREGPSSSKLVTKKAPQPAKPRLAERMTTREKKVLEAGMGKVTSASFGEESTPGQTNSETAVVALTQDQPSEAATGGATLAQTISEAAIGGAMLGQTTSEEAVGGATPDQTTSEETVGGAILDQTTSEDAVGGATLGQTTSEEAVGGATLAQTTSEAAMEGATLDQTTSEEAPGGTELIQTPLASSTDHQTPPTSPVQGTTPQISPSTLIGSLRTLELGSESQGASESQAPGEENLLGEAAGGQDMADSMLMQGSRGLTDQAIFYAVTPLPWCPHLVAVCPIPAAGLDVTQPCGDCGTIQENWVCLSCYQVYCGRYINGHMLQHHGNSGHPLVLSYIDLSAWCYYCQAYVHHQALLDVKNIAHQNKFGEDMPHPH
# Source text: Tubulin was used to normalize protein loading.
# [2] = system: WSU-NHL, Hut-78 and Jeko-1 cells; assay: Methylcellulose clonogenic assay; assay type: cell-based; conditions: 24 h liquid culture, colonies counted after 10 days
# Procedure: FIG. 2D and FIG. 2E show effects of ricolinostat alone and in combination with bendamustine on clonogenic survival. WSU-NHL, Hut-78 and Jeko-1 cells were first incubated with ricolinostat alone (1, 5, 10 μM) (C) and subsequently in combination with bendamustine (D) in liquid culture for 24 h. Treated cells were incubated in methylcellulose and colonies consisting of more 50 cell were counted after 10 days. The relative percentage with respect to control cells are shown and represent the mean±SD of three separate experiments.
# [3] = system: reactive oxygen species (ROS); assay: ROS generation by flow cytometry and Trx1 western blot; conditions: 24 h and 48 h
# Procedure: All data are expressed as the mean±SD of triplicate culture.
# H2O2 was used as a positive control.
# (§5) Apoptosis, reactive oxygen species (ROS), cell cycle analysis, and Bcl-2 protein expression were measured by flow cytometry.
# RL = assay: MTT cell viability in RL cells; assay type: cell-based; conditions: Homo sapiens, 48 h
# Procedure: (§4) HDAC6 protein is expressed in all cell lines examined (FIG. 1A). Ricolinostat was administered to each cell line at various concentrations (0.01, 0.1, 1, 5, and 10 μM), and cell viability was measured at 24, 48, and 72 hours.
# tubulin polymerization = assay: Tubulin polymerization by α-tubulin staining and flow cytometry; conditions: 24 hours, intensity of fluorescence
# Procedure: Data are expressed as mean±SD and were obtained from three independent experiments performed in triplicate.
# Lymphoma cells were treated for 24 hours with ricolinostat alone and in combination with bendamustine along with the microtubule destabilizer nocodazole (1 μM) and the microtubule stabilizer paclitaxel (100 nM). This was followed by whole cell-based quantitative measurement of tubulin polymerization using alpha-tubulin staining.
# IL-10 = IL-10 secretion by ELISA
# Procedure: IL-10 secretion was analyzed by ELISA. All data are means (±SD) of at least three separate experiments each performed in duplicate.
# [4] = system: lymphoma cell lines (WSU-NHL, Hut-78, Jeko-1); assay: Cell cycle analysis by flow cytometry; conditions: 24 h
# Procedure: The bars of M1, M2, M3 and M4 indicate the sub-G0/G1, G0/G1, S and G2/M phases, respectively.
# All values represent the mean±SD of three independent experiments.
# as §5
# Granta-519 = assay: cells; assay type: cell-based; conditions: Homo sapiens, MTT
# Procedure: as §1
# Karpas-299 = assay: MTT cell viability in Karpas-299 cells; assay type: cell-based; conditions: Homo sapiens, Karpas-299, 48 h
# Procedure: as §4
smiles,measurement,setting,value
"Cn1c(CCCC(=O)O)nc2cc(N(CCCl)CCCl)ccc21 [bendamustine, 4-[5-[Bis(2-chloroethyl)amino]-1-methylbenzimidazol-2-yl]butanoic acid]",IC50,"lymphoma cell lines; 24 h, read-out: range of IC50",127 to 168 µM
same,IC50,"Jeko-1; JeKo-1, 24 h, read-out: IC50 at 24 hours",127 µM
same,IC50,"WSU-NHL; 24 h, read-out: IC50 at 24 hours",168 µM
same,IC50,"Hut-78; HuT78, 24 h, read-out: IC50 at 24 hours",144 µM
"O=C(CCCCCCNC(=O)c1cnc(N(c2ccccc2)c2ccccc2)nc1)NO [ricolinostat, 2-(diphenylamino)-N-(7-(hydroxyamino)-7-oxoheptyl)pyrimidine-5-carboxamide]",induction of apoptosis,[1],induced apoptosis in all cell lines examined in time- and dose dependent manner
same,HDAC6 expression and acetylation level of α-tubulin,HDAC6,reduced HDAC6 expression and induced the acetylation level of α-tubulin
same,clonogenic survival / colony formation,[2],reduced clonogenic survival in a dose dependent manner
same,IC50,"lymphoma cell lines; lymphoma cell lines, exposure 24-72 hours, read-out: IC50 values ranging",0.17 to 8.65 µM
same,IC50,"lymphoma cell lines; panel of six lymphoma cell lines, 24 and 48 h, read-out: IC50 values ranging",1.51 to 64 µM
same,ROS generation,[3],"induced an increase of ROS production at 24 h, which further increased after 48 h"
same,IC50,RL,3.37 µM
same,tubulin polymerization,tubulin polymerization,induced tubulin polymerization
same,IL-10 secretion,IL-10,down-regulation of IL-10
same,cell cycle distribution,[4],increase in the percentage of cells in the G0/G1 phase and a decrease in the G2/M phase
same,IC50,"Jeko-1; Jeko-1, 48 h, MTT, read-out: IC50",3.42 µM
same,IC50,"WSU-NHL; 24 h, MTT, read-out: IC50",8.65 µM
same,IC50,"WSU-NHL; 48 h, MTT, read-out: IC50",1.97 µM
same,IC50,"Hut-78; HuT78, 48 h, Hut-78, 48 h, MTT, read-out: IC50",1.51 µM
same,IC50,"Hut-78; HuT78, 48 h, Hut-78, 48 hours, MTT, read-out: IC50",1.5 µM
same,IC50,"Granta-519; Granta-519, 24 h",64 µM
same,IC50,"Granta-519; Granta-519, 48 h",20 µM
same,IC50,Karpas-299,4.82 µM
